Measured values: ChEMBL document CHEMBL6120980, “Discovery of First Branched-Chain Ketoacid Dehydrogenase Kinase (BDK) Inhibitor Clinical Candidate PF-07328948” (J Med Chem, 2025)

Legend:
in vitro = conditions: dog, MDCK
physchem = conditions: octanol/water
[1] = human, hepatocytes, 4 h, 1 µM
[2] = target: Branched-chain alpha-ketoacid dehydrogenase kinase (Homo sapiens) (UniProt O14874); assay: Potency index, ratio of PF-07208254 IC50 to test compound IC50 for inhibition of human BDK using LBD-Tev-PhosphoPep/Lipoyl as substrate preincubated for 15 mins followed by substrate/ATP addition and measured after 90 mins by TR-FRET assay
[3] = target: Branched-chain alpha-ketoacid dehydrogenase kinase (Homo sapiens) (UniProt O14874); assay: Potency index, ratio of PF-07208254 IC50 to test compound IC50 for inhibition of BDK in human skeletal myocyte using BCKDHA as substrate assessed as inhibition of substrate phosphorylation incubated for 60 mins by AlphaLISA surefire ultra assay
[4] = human, hepatocytes, 4 h, 5 µM
[5] = Retention time of compound in phosphate buffer at pH 7.4 measured after approximately 150 mins by HPLC-UV analysis; format: physicochemical
[6] = Drug degradation in phosphate/D2O buffer at pH 7.6 assessed as half-life by H1-NMR analysis; format: ADME
[7] = target: Solute carrier family 22 member 6 (Homo sapiens, UniProt Q4U2R8); assay: Inhibition of human OAT1 expressed in HEK293 cells using p-aminohippuric acid as substrate preincubated for 30 mins followed by substrate addition and measured after 1 to 4 mins; format: cell-based
[8] = target: UDP-glucuronosyltransferase 1A1 (Homo sapiens, UniProt P22309); assay: Drug metabolism assessed as recombinant human UGT1A1-mediated (2S,3S,4S,5R)-6-((6-fluoro-3-(2,4,5-trifluoro-3-methoxyphenyl)benzo[b]thiophene-2-carbonyl)oxy)-3,4,5-trihydroxytetrahydro-2H-pyran-2-carboxylic acid metabolite formation at 1 uM; format: ADME; conditions: recombinant enzyme
[9] = target: ATP-dependent translocase ABCB1 (Homo sapiens, UniProt P08183); assay: Inhibition of human MDR1 expressed in HEK293 cell vesicles using N-methylquinidine as substrate preincubated for 30 mins followed by substrate addition and measured after 1 to 4 mins; format: subcellular, Vesicle
Cytochrome P450 3A5 = Cytochrome P450 3A5 (Homo sapiens, UniProt P20815); assay: Reversible inhibition of human CYP3A5-mediated nifedipine oxidation in human liver microsomes using nifedipine as substrate in presence of NADPH; format: ADME, Microsome
Cytochrome P450 2D6 = Cytochrome P450 2D6 (Homo sapiens, UniProt P10635); assay: Reversible inhibition of human CYP2D6-mediated dextromethorphan-O-demethylation in human liver microsomes using dextromethorphan as substrate in presence of NADPH; format: ADME, Microsome
[10] = target: Organic anion transporter 3 (Homo sapiens, UniProt Q8TCC7); assay: Inhibition of human OAT3 expressed in HEK293 cells using estrone-3-sulfate as substrate preincubated for 30 mins followed by substrate addition and measured after 1 to 4 mins; format: cell-based
[11] = target: Multidrug and toxin extrusion protein 2 (Homo sapiens, UniProt Q86VL8); assay: Inhibition of human MATE2K expressed in HEK293 cells using [14C]metformin as substrate preincubated for 30 mins followed by substrate addition and measured after 1 to 4 mins; format: cell-based
Cytochrome P450 = assay: Drug metabolism in human hepatocytes assessed as CYP450-catalyzed o-demethylation mediated 6-fluoro-3-(2,4,5-trifluoro-3-hydroxyphenyl)benzo[b]thiophene-2-carboxylic acid metabolite formation by mass spectrometric analysis; format: ADME, cell-based, Hepatocyte
[12] = target: UDP-glucuronosyltransferase 1A9 (Homo sapiens, UniProt O60656); assay: Drug metabolism assessed as recombinant human UGT1A9-mediated (2S,3S,4S,5R)-6-((6-fluoro-3-(2,4,5-trifluoro-3-methoxyphenyl)benzo[b]thiophene-2-carbonyl)oxy)-3,4,5-trihydroxytetrahydro-2H-pyran-2-carboxylic acid metabolite formation at 1 uM; format: ADME; conditions: recombinant enzyme
[13] = target: Solute carrier family 22 member 1 (Homo sapiens, UniProt O15245); assay: Inhibition of human OCT1 expressed in HEK293 cells using [14C]metformin as substrate preincubated for 30 mins followed by substrate addition and measured after 1 to 4 mins; format: cell-based
Cytochrome P450 3A4 [14] = target: T1, Cytochrome P450 3A4 (Homo sapiens, UniProt P08684); assay: Reversible inhibition of human CYP3A4-mediated midazolam-1'-hydroxylation in human liver microsomes using midazolam as substrate in presence of NADPH; format: ADME, Microsome
[15] = target: Branched-chain alpha-ketoacid dehydrogenase kinase (Mus musculus, UniProt O55028); assay: Inhibition of mouse BDK using LBD-Tev-PhosphoPep/Lipoyl as substrate preincubated for 15 mins followed by substrate/ATP addition and measured after 90 mins by TR-FRET assay
[16] = target: UDP-glucuronosyltransferase 2B15 (Homo sapiens, UniProt P54855); assay: Drug metabolism assessed as recombinant human UGT2B15-mediated (2S,3S,4S,5R)-6-((6-fluoro-3-(2,4,5-trifluoro-3-methoxyphenyl)benzo[b]thiophene-2-carbonyl)oxy)-3,4,5-trihydroxytetrahydro-2H-pyran-2-carboxylic acid metabolite formation at 1 uM; format: ADME; conditions: recombinant enzyme
[17] = target: Multidrug and toxin extrusion protein 1 (Homo sapiens, UniProt Q96FL8); assay: Inhibition of human MATE1 expressed in HEK293 cells using [14C]metformin as substrate preincubated for 30 mins followed by substrate addition and measured after 1 to 4 mins; format: cell-based
Cytochrome P450 2C8 = Cytochrome P450 2C8 (Homo sapiens, UniProt P10632); assay: Reversible inhibition of human CYP2C8-mediated amodiaquine N-dealkylation in human liver microsomes using amodiaquine as substrate in presence of NADPH; format: ADME, Microsome
Cytochrome P450 2C19 = Cytochrome P450 2C19 (Homo sapiens, UniProt P33261); assay: Reversible inhibition of human CYP2C19-mediated S-mephenytoin-4'-hydroxylation in human liver microsomes using S-mephenytoin as substrate in presence of NADPH; format: ADME, Microsome
[18] = target: Solute carrier organic anion transporter family member 1B3 (Homo sapiens, UniProt Q9NPD5); assay: Inhibition of human OATP1B3 expressed in HEK293 cells using rosuvastatin as substrate preincubated for 30 mins followed by substrate addition and measured after 1 to 4 mins; format: cell-based
[19] = target: Solute carrier organic anion transporter family member 1B1 (Homo sapiens, UniProt Q9Y6L6); assay: Inhibition of human OATP1B1 expressed in HEK293 cells using rosuvastatin as substrate preincubated for 30 mins followed by substrate addition and measured after 1 to 4 mins; format: cell-based
[20] = target: Solute carrier family 22 member 2 (Homo sapiens, UniProt O15244); assay: Inhibition of human OCT2 expressed in HEK293 cells using [14C]metformin as substrate preincubated for 30 mins followed by substrate addition and measured after 1 to 4 mins; format: cell-based
[21] = target: UDP-glucuronosyltransferase 2B4 (Homo sapiens, UniProt P06133); assay: Drug metabolism assessed as recombinant human UGT2B4-mediated (2S,3S,4S,5R)-6-((6-fluoro-3-(2,4,5-trifluoro-3-methoxyphenyl)benzo[b]thiophene-2-carbonyl)oxy)-3,4,5-trihydroxytetrahydro-2H-pyran-2-carboxylic acid metabolite formation at 1 uM; format: ADME; conditions: recombinant enzyme
Cytochrome P450 2B6 = Cytochrome P450 2B6 (Homo sapiens, UniProt P20813); assay: Reversible inhibition of human CYP2B6-mediated bupropion hydroxylation in human liver microsomes using bupropion as substrate in presence of NADPH; format: ADME, Microsome
[22] = target: UDP-glucuronosyltransferase 1A3 (Homo sapiens, UniProt P35503); assay: Drug metabolism assessed as recombinant human UGT1A3-mediated (2S,3S,4S,5R)-6-((6-fluoro-3-(2,4,5-trifluoro-3-methoxyphenyl)benzo[b]thiophene-2-carbonyl)oxy)-3,4,5-trihydroxytetrahydro-2H-pyran-2-carboxylic acid metabolite formation at 1 uM; format: ADME; conditions: recombinant enzyme
Cytochrome P450 1A2 = Cytochrome P450 1A2 (Homo sapiens, UniProt P05177); assay: Reversible inhibition of human CYP1A2-mediated phenacetin-O-dealkylation in human liver microsomes using phenacetin as substrate in presence of NADPH; format: ADME, Microsome
Cytochrome P450 2C9 = Cytochrome P450 2C9 (Homo sapiens, UniProt P11712); assay: Reversible inhibition of human CYP2C9-mediated diclofenac-4'-hydroxylation in human liver microsomes using diclofenac as substrate in presence of NADPH; format: ADME, Microsome
Cytochrome P450 3A4 [23] = target: T1, Cytochrome P450 3A4; assay: Reversible inhibition of human CYP3A4-mediated testosterone-6beta-hydroxylation in human liver microsomes using testosterone as substrate in presence of NADPH; format: ADME, Microsome

T1 sequence (P08684 whole entry, the tested form may be a part): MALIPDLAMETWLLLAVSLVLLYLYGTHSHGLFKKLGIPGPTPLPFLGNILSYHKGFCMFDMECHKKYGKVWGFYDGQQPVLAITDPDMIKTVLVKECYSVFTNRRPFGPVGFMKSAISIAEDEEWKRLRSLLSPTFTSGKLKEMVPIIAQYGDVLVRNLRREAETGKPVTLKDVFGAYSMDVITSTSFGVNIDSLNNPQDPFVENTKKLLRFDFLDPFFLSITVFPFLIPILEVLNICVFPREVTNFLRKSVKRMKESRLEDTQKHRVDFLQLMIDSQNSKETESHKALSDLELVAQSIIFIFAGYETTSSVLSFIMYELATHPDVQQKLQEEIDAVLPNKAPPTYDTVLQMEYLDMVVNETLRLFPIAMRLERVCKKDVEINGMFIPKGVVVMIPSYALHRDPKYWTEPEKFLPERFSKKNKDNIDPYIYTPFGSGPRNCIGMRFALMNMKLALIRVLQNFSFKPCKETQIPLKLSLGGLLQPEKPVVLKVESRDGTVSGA
Sequence of Solute carrier family 22 member 6 (Q4U2R8 whole entry): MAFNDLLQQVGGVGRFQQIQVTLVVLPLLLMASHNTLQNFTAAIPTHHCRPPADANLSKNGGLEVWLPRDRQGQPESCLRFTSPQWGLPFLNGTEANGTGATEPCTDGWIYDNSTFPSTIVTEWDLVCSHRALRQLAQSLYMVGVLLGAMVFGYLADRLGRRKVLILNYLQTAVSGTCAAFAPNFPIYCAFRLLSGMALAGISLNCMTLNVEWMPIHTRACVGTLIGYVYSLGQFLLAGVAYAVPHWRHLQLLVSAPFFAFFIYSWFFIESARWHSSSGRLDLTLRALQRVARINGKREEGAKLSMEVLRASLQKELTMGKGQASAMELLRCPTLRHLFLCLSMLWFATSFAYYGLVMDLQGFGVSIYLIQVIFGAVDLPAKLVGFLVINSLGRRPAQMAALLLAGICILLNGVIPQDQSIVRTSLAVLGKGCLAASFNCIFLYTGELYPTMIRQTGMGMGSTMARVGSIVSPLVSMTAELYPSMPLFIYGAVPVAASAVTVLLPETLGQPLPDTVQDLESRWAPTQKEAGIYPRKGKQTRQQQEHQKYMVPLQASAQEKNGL
Sequence of Cytochrome P450 3A5 (P20815 whole entry): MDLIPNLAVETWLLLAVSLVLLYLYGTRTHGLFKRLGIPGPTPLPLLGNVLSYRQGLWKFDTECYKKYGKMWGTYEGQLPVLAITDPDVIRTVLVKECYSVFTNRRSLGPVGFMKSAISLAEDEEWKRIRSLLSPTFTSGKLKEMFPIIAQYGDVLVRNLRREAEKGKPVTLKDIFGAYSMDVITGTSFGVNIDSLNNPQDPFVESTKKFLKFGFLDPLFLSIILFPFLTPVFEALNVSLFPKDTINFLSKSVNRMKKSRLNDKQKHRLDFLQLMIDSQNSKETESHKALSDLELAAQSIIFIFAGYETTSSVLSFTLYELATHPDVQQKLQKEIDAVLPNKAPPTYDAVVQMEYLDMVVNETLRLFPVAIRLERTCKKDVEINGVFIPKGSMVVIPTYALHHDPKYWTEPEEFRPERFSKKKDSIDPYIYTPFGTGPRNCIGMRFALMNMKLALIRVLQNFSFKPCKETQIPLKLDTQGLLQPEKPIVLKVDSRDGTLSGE
Sequence of Cytochrome P450 2C8 (P10632 whole entry): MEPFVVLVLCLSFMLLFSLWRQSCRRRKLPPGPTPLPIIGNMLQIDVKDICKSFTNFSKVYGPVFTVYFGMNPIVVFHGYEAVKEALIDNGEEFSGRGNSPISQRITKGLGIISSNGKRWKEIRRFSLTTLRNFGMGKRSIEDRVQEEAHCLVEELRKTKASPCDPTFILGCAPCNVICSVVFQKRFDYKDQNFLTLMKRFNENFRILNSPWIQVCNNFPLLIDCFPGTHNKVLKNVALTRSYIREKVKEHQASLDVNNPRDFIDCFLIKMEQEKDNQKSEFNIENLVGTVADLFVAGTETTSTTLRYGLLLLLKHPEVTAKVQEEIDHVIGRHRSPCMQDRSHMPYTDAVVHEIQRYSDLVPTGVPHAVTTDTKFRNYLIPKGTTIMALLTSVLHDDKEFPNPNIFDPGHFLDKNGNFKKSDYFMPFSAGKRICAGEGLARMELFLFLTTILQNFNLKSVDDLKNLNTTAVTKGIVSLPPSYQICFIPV
Sequence of Cytochrome P450 2B6 (P20813 whole entry): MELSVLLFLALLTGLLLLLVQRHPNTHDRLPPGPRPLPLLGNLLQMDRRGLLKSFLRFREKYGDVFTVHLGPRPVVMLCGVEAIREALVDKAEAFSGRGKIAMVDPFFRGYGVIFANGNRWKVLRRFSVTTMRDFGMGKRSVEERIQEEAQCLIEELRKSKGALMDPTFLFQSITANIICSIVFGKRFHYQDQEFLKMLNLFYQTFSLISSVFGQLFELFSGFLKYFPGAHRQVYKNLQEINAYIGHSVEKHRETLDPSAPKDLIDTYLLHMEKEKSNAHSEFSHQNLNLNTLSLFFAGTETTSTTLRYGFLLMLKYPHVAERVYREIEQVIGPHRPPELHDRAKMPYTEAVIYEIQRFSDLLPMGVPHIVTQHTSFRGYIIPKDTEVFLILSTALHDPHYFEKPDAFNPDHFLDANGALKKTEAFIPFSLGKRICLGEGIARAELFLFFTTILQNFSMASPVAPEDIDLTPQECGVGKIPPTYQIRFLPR
Sequence of Cytochrome P450 2C19 (P33261 whole entry): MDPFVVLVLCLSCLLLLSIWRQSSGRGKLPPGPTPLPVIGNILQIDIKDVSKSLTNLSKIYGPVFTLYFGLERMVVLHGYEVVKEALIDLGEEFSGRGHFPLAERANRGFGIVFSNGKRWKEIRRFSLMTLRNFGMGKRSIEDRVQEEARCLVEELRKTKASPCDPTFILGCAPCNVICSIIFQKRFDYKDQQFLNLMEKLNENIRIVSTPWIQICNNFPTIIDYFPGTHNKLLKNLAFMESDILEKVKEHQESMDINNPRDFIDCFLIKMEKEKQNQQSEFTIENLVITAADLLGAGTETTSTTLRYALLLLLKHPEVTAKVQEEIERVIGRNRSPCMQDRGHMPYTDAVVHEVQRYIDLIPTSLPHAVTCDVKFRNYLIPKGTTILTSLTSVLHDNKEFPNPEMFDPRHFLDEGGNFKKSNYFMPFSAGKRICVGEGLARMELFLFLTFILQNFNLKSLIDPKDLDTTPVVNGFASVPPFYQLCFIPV
Sequence of Solute carrier family 22 member 2 (O15244 whole entry): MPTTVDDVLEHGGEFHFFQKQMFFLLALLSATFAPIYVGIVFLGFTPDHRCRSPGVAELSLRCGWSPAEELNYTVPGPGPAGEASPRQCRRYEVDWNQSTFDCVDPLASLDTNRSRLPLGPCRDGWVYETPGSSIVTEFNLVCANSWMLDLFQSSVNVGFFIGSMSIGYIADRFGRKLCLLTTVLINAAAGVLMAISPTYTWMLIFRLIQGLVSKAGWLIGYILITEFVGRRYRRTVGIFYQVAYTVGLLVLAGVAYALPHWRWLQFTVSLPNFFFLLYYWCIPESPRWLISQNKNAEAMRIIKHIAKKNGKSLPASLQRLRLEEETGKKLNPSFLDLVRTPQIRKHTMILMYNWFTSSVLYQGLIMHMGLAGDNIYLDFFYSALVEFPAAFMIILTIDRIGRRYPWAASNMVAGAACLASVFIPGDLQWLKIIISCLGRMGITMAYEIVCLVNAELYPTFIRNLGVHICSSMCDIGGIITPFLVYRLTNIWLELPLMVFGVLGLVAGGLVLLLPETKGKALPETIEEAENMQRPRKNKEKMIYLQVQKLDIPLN
Sequence of Cytochrome P450 2C9 (P11712 whole entry): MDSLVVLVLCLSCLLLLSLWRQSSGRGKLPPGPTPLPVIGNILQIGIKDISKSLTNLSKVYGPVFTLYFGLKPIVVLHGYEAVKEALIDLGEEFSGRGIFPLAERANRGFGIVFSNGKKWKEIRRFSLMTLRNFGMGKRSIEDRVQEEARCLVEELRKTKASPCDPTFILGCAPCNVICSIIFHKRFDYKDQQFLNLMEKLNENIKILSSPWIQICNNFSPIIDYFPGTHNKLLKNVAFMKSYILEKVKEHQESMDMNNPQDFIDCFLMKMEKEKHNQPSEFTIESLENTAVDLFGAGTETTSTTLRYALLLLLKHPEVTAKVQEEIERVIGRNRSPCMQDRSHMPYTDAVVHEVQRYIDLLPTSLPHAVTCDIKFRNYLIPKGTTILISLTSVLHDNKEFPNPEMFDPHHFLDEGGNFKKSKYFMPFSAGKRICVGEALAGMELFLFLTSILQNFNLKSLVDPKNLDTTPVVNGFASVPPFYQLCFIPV
Sequence of Cytochrome P450 1A2 (P05177 whole entry): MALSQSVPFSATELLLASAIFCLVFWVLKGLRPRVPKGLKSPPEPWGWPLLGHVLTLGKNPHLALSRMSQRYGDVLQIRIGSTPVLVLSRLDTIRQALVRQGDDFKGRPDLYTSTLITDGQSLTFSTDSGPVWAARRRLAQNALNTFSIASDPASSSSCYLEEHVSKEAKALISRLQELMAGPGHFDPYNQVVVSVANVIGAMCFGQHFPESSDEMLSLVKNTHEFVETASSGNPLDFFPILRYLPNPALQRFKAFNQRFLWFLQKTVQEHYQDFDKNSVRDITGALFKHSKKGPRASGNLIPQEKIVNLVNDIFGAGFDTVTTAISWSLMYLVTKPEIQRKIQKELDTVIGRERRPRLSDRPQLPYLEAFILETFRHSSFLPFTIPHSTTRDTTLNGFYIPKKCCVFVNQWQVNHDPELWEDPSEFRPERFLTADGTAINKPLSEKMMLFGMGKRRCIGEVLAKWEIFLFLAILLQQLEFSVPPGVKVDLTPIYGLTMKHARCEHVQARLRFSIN

Structure (SMILES): CCOc1c(F)ccc(-c2c(C(=O)O)sc3cc(F)ccc23)c1F
- Papp A→B (in vitro): 16 ×10⁻⁶ cm/s
- logD (physchem): 1.5
- CLH(app) [1]: 43 µL/min

Structure (SMILES): COc1c(F)ccc(-c2c(C(=O)O)sc3cc(F)ccc23)c1F
- Papp A→B (in vitro): 26 ×10⁻⁶ cm/s
- logD (physchem): 1.1
- CLH(app) [1]: 26 µL/min

Structure (SMILES): O=C(O)c1sc2cc(F)ccc2c1-c1cc(F)c(F)cc1F
- Papp A→B (in vitro): 10 ×10⁻⁶ cm/s
- logD (physchem): 1.3
- CLH(app) [1]: 23 µL/min

Structure (SMILES): COc1cccc(-c2c(C(=O)O)sc3cc(F)ccc23)c1
- Papp A→B (in vitro): 8.5 ×10⁻⁶ cm/s
- logD (physchem): 1.4
- CLH(app) [1]: 32 µL/min

Structure (SMILES): CCc1c(F)c(F)cc(-c2c(C(=O)O)sc3cc(F)ccc23)c1F
- Papp A→B (in vitro): 11 ×10⁻⁶ cm/s
- logD (physchem): 2.2
- CLH(app) [1]: 52 µL/min

Structure (SMILES): COc1c(F)cc(F)c(-c2c(C(=O)O)sc3cc(F)ccc23)c1F
- Ratio IC50 [2]: 7
- Ratio IC50 [3]: 36
- Papp A→B (in vitro): 20 ×10⁻⁶ cm/s
- logD (physchem): 1
- CLH(app) [1]: 21 µL/min

Structure (SMILES): O=C(O)c1sc2cc(F)sc2c1Cl
- Papp A→B (in vitro): 14 ×10⁻⁶ cm/s
- PB [4]: 103 pmol
- logD (physchem): 0.1
- CLH(app) [1]: < 2.7 µL/min

Structure (SMILES): Cc1c(F)c(F)cc(-c2c(C(=O)O)sc3cc(F)ccc23)c1F
- Papp A→B (in vitro): 11 ×10⁻⁶ cm/s
- logD (physchem): 1.6

Structure (SMILES): O=C(O)c1sc2cc(F)ccc2c1Cl
- Papp A→B (in vitro): 30 ×10⁻⁶ cm/s
- logD (physchem): 0.5
- CLH(app) [1]: < 2 µL/min

Structure (SMILES): O=C(O)c1sc2cc(Cl)ccc2c1Cl
- Papp A→B (in vitro): 31 ×10⁻⁶ cm/s
- logD (physchem): 0.7
- CLH(app) [1]: 5.2 µL/min

Structure (SMILES): COc1c(F)c(F)cc(-c2c(C(=O)OC3O[C@H](C(=O)O)[C@@H](O)[C@H](O)[C@H]3O)sc3cc(F)ccc23)c1F (some centres undefined)
- Retention_time [5]: 17.6 min
- half-life [6]: ~1.37 h

Structure (SMILES): O=C(O)c1sc2cc(F)ccc2c1-c1ccccc1
- logD (physchem): 1.1
- CLH(app) [1]: 31 µL/min

Structure (SMILES): COc1cccc(-c2c(C(=O)O)sc3cc(F)ccc23)c1F
- Papp A→B (in vitro): 28 ×10⁻⁶ cm/s
- logD (physchem): 1
- CLH(app) [1]: 23 µL/min

Structure (SMILES): COc1c(F)c(F)cc(-c2c(C(=O)O)sc3cc(F)ccc23)c1F
- IC50 [7]: 3.3 µM
- Drug metabolism [8]: metabolite_detected
- IC50 [9]: > 80 µM
- IC50 (Cytochrome P450 3A5): > 100 µM
- IC50 (Cytochrome P450 2D6): > 100 µM
- IC50 [10]: 0.67 µM
- IC50 [11]: > 80 µM
- Drug metabolism (Cytochrome P450): metabolite_detected
- Drug metabolism [12]: metabolite_detected
- IC50 [13]: > 80 µM
- IC50 (Cytochrome P450 3A4 [14]): > 100 µM
- IC50 [15]: 0.041 µM
- Drug metabolism [16]: metabolite_detected
- IC50 [17]: > 80 µM
- IC50 (Cytochrome P450 2C8): 23.6 µM
- IC50 (Cytochrome P450 2C19): > 100 µM
- IC50 [18]: > 80 µM
- IC50 [19]: 4.5 µM
- IC50 [20]: > 80 µM
- Drug metabolism [21]: metabolite_detected
- IC50 (Cytochrome P450 2B6): 6.7 µM
- Drug metabolism [22]: metabolite_detected
- IC50 (Cytochrome P450 1A2): 1.1 µM
- IC50 (Cytochrome P450 2C9): 1 µM
- IC50 (Cytochrome P450 3A4 [23]): > 100 µM
